Results published in ChEMBL document CHEMBL2385047, “Synthesis and antifungal evaluation of pentyloxyl-diphenylisoxazoloyl pneumocandins and echinocandins” (Bioorg Med Chem Lett, 2013).
≈ marks a conversion by molar mass, not a printed value. Numbered stars: 1 amine (or outer) side, 2 acyl side, 3 side chain; on linkers, the order of the positions; unused ones are H or OH. Bridge positions count the residues as written; N and C are the ends. Square brackets hold non-standard residues; d marks the D form. Peptide text beside a SMILES is read from it. * marks the point of attachment. Orn(4R-OH,5R-OH) = O=C([C@H](C[C@@H](O)[C@@H](O)N[*:3])N[*:1])[*:2]; hTyr(3S-OH,4S-OH) = N[C@H](C(=O)O)[C@H](O)[C@@H](O)c1ccc(O)cc1; Pro(3S-OH,4S-Me) = C[C@H]1CN[C@H](C(=O)O)[C@H]1O; X1 = CCCCCOc1ccc(-c2cc(-c3ccc(C(=O)*)cc3)no2)cc1; Gln(3R-OH) = NC(=O)C[C@@H](O)[C@H](N)C(=O)O; Pro(3S-OH) = O=C(O)[C@H]1NCC[C@@H]1O; Hyp = O=C(O)[C@@H]1C[C@@H](O)CN1

Tests used:
[1] = system: Meyerozyma guilliermondii; test: Antifungal activity against wild type Candida guilliermondii CLY308 assessed as growth inhibition after 24 hrs by NCCLS broth microdilution method; type: functional; details: CLY308, 24 h; for MIC: read-out: MIC100
Candida albicans [2] = test: Antifungal activity against Candida albicans NR3 assessed as growth inhibition after 24 hrs by NCCLS broth microdilution method; type: functional; details: NR3, 24 h; for MIC: read-out: MIC100
Candida albicans [3] = test: Antifungal activity against wild type Candida albicans MY1055 assessed as growth inhibition after 24 hrs by NCCLS broth microdilution method; type: functional; details: MY1055, 24 h; for MIC: read-out: MIC100
Escherichia coli = test: Antibacterial activity against Escherichia coli ATCC 25922 assessed as growth inhibition after 24 hrs by NCCLS broth microdilution method; type: functional; details: ATCC 25922, 24 h, read-out: MIC100
Staphylococcus aureus = test: Antibacterial activity against methicillin-sensitive Staphylococcus aureus MB2865 assessed as growth inhibition after 24 hrs by NCCLS broth microdilution method; type: functional; details: MB2865, 24 h, read-out: MIC100
Candida albicans [4] = test: Antifungal activity against Candida albicans CAI4-R1 assessed as growth inhibition after 24 hrs by NCCLS broth microdilution method; type: functional; details: CAI4-R1, 24 h; for MIC: read-out: MIC100
Aspergillus fumigatus = test: Antifungal activity against Aspergillus fumigatus MF5668 caspofungin spontaneous resistance mutant assessed as growth inhibition after 24 hrs by NCCLS broth microdilution method; type: functional; details: MF5668, 24 h; for minimal effective concentration: read-out: MEC
Pichia kudriavzevii = test: Antifungal activity against wild type Candida krusei CLY549 assessed as growth inhibition after 24 hrs by NCCLS broth microdilution method; type: functional; details: CLY549, 24 h; for MIC: read-out: MIC100
Nakaseomyces glabratus = test: Antifungal activity against wild type Candida glabrata MY1381 assessed as growth inhibition after 24 hrs by NCCLS broth microdilution method; type: functional; details: MY1381, 24 h; for MIC: read-out: MIC100
Candida albicans [5] = test: Antifungal activity against wild type Candida albicans MY1055 assessed as growth inhibition after 24 hrs by NCCLS broth microdilution method in presence of human serum; type: functional; details: MY1055, 24 h; for MIC: read-out: MIC100
Candida parapsilosis = test: Antifungal activity against wild type Candida parapsilosis ATCC 22019 assessed as growth inhibition after 24 hrs by NCCLS broth microdilution method; type: functional; details: Lodderomyces parapsilosis, ATCC 22019, 24 h; for MIC: read-out: MIC100
Beta-1,3-glucan synthase [6] = target: T1, Beta-1,3-glucan synthase (Candida albicans, UniProt O13383); test: Inhibition of wild type Candida albicans 1,3-beta-D-glucan synthase using UDP[6,3H]-glucose as substrate after 60 mins by liquid scintillation counting analysis
T1 sequence (O13383 whole entry): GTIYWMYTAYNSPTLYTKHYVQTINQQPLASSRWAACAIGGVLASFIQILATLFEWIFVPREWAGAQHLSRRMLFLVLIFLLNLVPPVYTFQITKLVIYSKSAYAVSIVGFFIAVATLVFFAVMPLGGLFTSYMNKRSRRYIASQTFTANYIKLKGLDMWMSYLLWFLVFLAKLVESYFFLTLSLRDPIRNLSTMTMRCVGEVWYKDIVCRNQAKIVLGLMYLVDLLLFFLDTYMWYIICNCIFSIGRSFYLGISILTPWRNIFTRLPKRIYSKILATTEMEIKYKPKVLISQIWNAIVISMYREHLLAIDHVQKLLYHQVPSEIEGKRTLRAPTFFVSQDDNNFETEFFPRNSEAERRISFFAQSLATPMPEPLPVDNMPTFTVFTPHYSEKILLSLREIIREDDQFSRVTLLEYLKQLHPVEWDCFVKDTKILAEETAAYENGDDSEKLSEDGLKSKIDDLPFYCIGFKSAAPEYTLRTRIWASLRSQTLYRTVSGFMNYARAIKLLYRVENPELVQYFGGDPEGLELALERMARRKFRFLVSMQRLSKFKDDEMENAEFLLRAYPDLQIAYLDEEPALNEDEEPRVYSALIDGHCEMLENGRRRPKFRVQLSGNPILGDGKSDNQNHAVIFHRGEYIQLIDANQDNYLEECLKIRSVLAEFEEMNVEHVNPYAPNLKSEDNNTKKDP

Clavispora lusitaniae = test: Antifungal activity against wild type Candida lusitaniae MY1396 assessed as growth inhibition after 24 hrs by NCCLS broth microdilution method; type: functional; details: MY1396, 24 h; for MIC: read-out: MIC100
Candida albicans [7] = test: Antifungal activity against wild type Candida albicans CAI4 assessed as growth inhibition after 24 hrs by NCCLS broth microdilution method; type: functional; details: CAI4, 24 h; for MIC: read-out: MIC100
Cryptococcus neoformans = test: Antifungal activity against capsular wild type Cryptococcus neoformans MY2061 assessed as growth inhibition after 24 hrs by NCCLS broth microdilution method; type: functional; details: MY2061, 24 h, read-out: MIC100
[8] = Inhibition of caspofungin-resistant Candida albicans CLY-16996 1,3-beta-D-glucan synthase component FKS1/FKS1 S645F mutant using UDP[6,3H]-glucose as substrate after 60 mins by liquid scintillation counting analysis
[9] = Inhibition of caspofungin-resistant Candida albicans CLY-16997 1,3-beta-D-glucan synthase component FKS1/FKS1 S645P mutant using UDP[6,3H]-glucose as substrate after 60 mins by liquid scintillation counting analysis
Candida albicans [10] = test: Antifungal activity against Candida albicans MY1055 infected in DBA/2 mouse assessed as reduction of log CFU in kidney administered 30 mins as ip tid post infection measured after 24 hrs; type: functional
Candida albicans [11] = test: Antifungal activity against caspofungin-resistant Candida albicans CLY-16996 harboring 1,3-beta-D-glucan synthase component FKS1/FKS1 S645F mutant assessed as growth inhibition after 24 hrs by NCCLS broth microdilution method; type: functional; details: CLY-16996, 24 h
Beta-1,3-glucan synthase [12] = target: T1, Beta-1,3-glucan synthase; test: Inhibition of wild type Candida albicans MY1055 1,3-beta-D-glucan synthase using UDP[6,3H]-glucose as substrate after 60 mins by liquid scintillation counting analysis

Row | SMILES | MIC80 [1] [µg/mL] | MIC [1] [µg/mL] | MIC80 (Candida albicans [2]) [µg/mL] | MIC (Candida albicans [2]) [µg/mL] | MIC80 (Candida albicans [3]) [µg/mL] | MIC (Candida albicans [3]) [µg/mL] | MIC (Escherichia coli) [µg/mL] | MIC (Staphylococcus aureus) [µg/mL] | MIC80 (Candida albicans [4]) [µg/mL] | MIC (Candida albicans [4]) [µg/mL] | MIC80 (Aspergillus fumigatus) [µg/mL] | minimal effective concentration (Aspergillus fumigatus) [µg/mL] | MIC80 (Pichia kudriavzevii) [µg/mL] | MIC (Pichia kudriavzevii) [µg/mL] | MIC80 (Nakaseomyces glabratus) [µg/mL] | MIC (Nakaseomyces glabratus) [µg/mL] | MIC80 (Candida albicans [5]) [µg/mL] | MIC (Candida albicans [5]) [µg/mL] | MIC80 (Candida parapsilosis) [µg/mL] | MIC (Candida parapsilosis) [µg/mL] | also measured
1 | CCCCCOc1ccc(-c2cc(-c3ccc(C(=O)N[C@H]4C[C@@H](O)[C@@H](O)NC(=O)[C@@H]5[C@@H](O)[C@@H](C)CN5C(=O)[C@H]([C@@H](C)O)NC(=O)[C@H]([C@H](O)[C@@H](O)c5ccc(O)cc5)NC(=O)[C@@H]5C[C@@H](O)CN5C(=O)[C@H]([C@@H](C)O)NC4=O)cc3)no2)cc1 (X1-[Orn(4R-OH,5R-OH)]T[Hyp][hTyr(3S-OH,4S-OH)]T[Pro(3S-OH,4S-Me)]; lactam 1-C) | 2 (≈ 1.77 µM) | 4 (≈ 3.54 µM) | 4 (≈ 3.54 µM) | 16 (≈ 14.1 µM) | 0.06 (≈ 0.053 µM) | 0.5 (≈ 0.442 µM) | > 32 | > 32 | 1 (≈ 0.884 µM) | 8 (≈ 7.07 µM) | < 0.03 | > 32 | 0.5 (≈ 0.442 µM) | 1 (≈ 0.884 µM) | 0.25 (≈ 0.221 µM) | 1 (≈ 0.884 µM) | 0.5 | 2 | 4 (≈ 3.54 µM) | 32 (≈ 28.3 µM) | IC50 (Beta-1,3-glucan synthase [6]): 4.4 nM; MIC80 (Clavispora lusitaniae): 0.125 µg/mL (≈ 0.111 µM); MIC (Clavispora lusitaniae): 1 µg/mL (≈ 0.884 µM); MIC80 (Candida albicans [7]): < 0.03 µg/mL; MIC (Candida albicans [7]): 0.5 µg/mL (≈ 0.442 µM); MIC (Cryptococcus neoformans): > 32 µg/mL
2 | CCCCCOc1ccc(-c2cc(-c3ccc(C(=O)N[C@H]4C[C@@H](O)[C@@H](O)NC(=O)[C@@H]5[C@@H](O)CCN5C(=O)[C@H]([C@H](O)CC(N)=O)NC(=O)[C@H]([C@H](O)[C@@H](O)c5ccc(O)cc5)NC(=O)[C@@H]5C[C@@H](O)CN5C(=O)[C@H]([C@@H](C)O)NC4=O)cc3)no2)cc1 (X1-[Orn(4R-OH,5R-OH)]T[Hyp][hTyr(3S-OH,4S-OH)][Gln(3R-OH)][Pro(3S-OH)]; lactam 1-C) | 1 (≈ 0.862 µM) | 2 (≈ 1.72 µM) | 4 (≈ 3.45 µM) | 8 (≈ 6.9 µM) | < 0.03 | 0.125 (≈ 0.108 µM) | > 32 | > 32 | 1 (≈ 0.862 µM) | 4 (≈ 3.45 µM) | < 0.03 | > 32 | 0.25 (≈ 0.215 µM) | 2 (≈ 1.72 µM) | 0.25 (≈ 0.215 µM) | 0.5 (≈ 0.431 µM) | 0.25 | 1 | 2 (≈ 1.72 µM) | 32 (≈ 27.6 µM) | IC50 [8]: 2.1 nM; IC50 [9]: 2.4 nM; ED90 (Candida albicans [10]): 0.24 mg/kg/day; ED99 (Candida albicans [10]): 1.31 mg/kg/day; MIC (Candida albicans [11]): 2 µg/mL (≈ 1.72 µM); IC50 (Beta-1,3-glucan synthase [12]): 2.8 nM; MIC80 (Clavispora lusitaniae): < 0.03 µg/mL; MIC (Clavispora lusitaniae): 0.125 µg/mL (≈ 0.108 µM); MIC80 (Candida albicans [7]): < 0.03 µg/mL; MIC (Candida albicans [7]): 0.06 µg/mL (≈ 0.0517 µM); MIC (Cryptococcus neoformans): > 32 µg/mL
